Assay results published in patent US4146628A, “Antiarrhythmic quinuclidine carboxylic acid xylidide and method of producing the same and similar compounds” (priority 1977, dated 1979).
“And” between values parts separate entries of the source, which are not always exact repeats. Equal entries are not always repeated. “Also recorded” adds a separate entry of the source. Structures can show the parent of a compound that is named as a salt. Where two headings read alike, the source gives them in different places.

How the values were obtained:
[1] = French Pat. No. 1,566,045; cited from earlier work
[2] = Comparative tests of antiarrhythmic action, neurotoxicity and side effects (general statements); conditions: general statement
[3] = Dahlbom and Dolby, Acta Pharm. Suecica (1969); cited from earlier work
[4] = Acute toxicity, i.p. injection in mice; conditions: mouse, in vivo, ip, 0.5% solution, male albino ICR mice, probit analysis
Procedure: The toxicity of Compound I was determined by i.p. injection of a 0.5% solution of the drug into male, albino ICR mice weighing 20-25 g each. A group of six mice was used for each dose.

[5] = Interaction with metrazole-induced convulsions; assay type: in vivo; conditions: metrazole 100 mg/kg; i.p. 30, 60 and 90 minutes prior to metrazole
Excerpt: (§1) The lack of interaction of Compound I with other centrally active drugs may also be taken as an indication of its lack of activity in the CNS.

[6] = Interaction with oxotremorine-induced tremors; assay type: in vivo; conditions: oxotremorine 20 μg/kg i.p.; given i.p. 30 minutes prior
Excerpt: as §1

[7] = Interaction with Indoklon-induced seizures; assay type: in vivo; conditions: Indoklon by inhalation 30 minutes later
Excerpt: as §1

[8] = Interaction with electro shock-induced seizure; assay type: in vivo; conditions: 30 volts
Excerpt: as §1

conscious, healthy dogs = conditions: dog, in vivo, iv, 5 mg/kg
normal heart [9] = test: Effect on normal heart (ECG) in conscious healthy dogs; assay type: in vivo
Procedure: The effect of Compound I on the normal heart was determined by the administration of the compound as a bolus intravenous injection to conscious healthy dogs for which lead II of the electrocardiogram was monitored for as long as 2 hours after injection.
In one case, a single dose of 5 mg/kg was administered rapidly in order to achieve a high but transient concentration in the heart. […] The ECG record reverted to normal within 15 minutes.

normal heart [10] = test: Effect on normal heart (ECG) in nembutal-anesthetized dog; assay type: in vivo; conditions: nembutal 25 mg/kg; cumulative i.v. dose 6 mg/kg over 30 minutes
normal heart [11] = test: Effect on normal heart (ECG) in nembutal-anesthetized cats; assay type: in vivo
Procedure: Nembutal anesthetized cats responded differently. […] If drug administration was discontinued at this stage, then the severe toxic effects would disappear after 40 minutes, the heart reverting to normal sinus rhythm.

[12] = Ouabain-induced arrhythmia in the cat; assay type: in vivo; set-up: key to S.R. (sinus rhythm), Lidocaine-treated / S.R. (sinus rhythm), Compound I treated: +: denotes return to the rhythm
[13] = Ouabain-induced arrhythmia in dogs; assay type: in vivo; set-up: key to S.R. (sinus rhythm), Compound I treated: +: denotes return to the rhythm
Procedure: In other experiments using mongrel dogs, the animals were anesthetized by an i.v. injection of nembutal (25 mg/kg), then arrhythmia was induced by the administration of decreasing doses of ouabain at 30 minute intervals, 40, 20 and 10 μg/kg. Treatment with Compound I was then carried out as described for cats.

[14] = Occlusion-induced arrhythmias in conscious dogs, parenteral administration; assay type: in vivo
Procedure: The effect of parenteral administration of Compound I on occlusion-induced arrhythmias in conscious dogs was determined. Occulsion was achieved by ligation of the left anteria descending coronary artery on 5 dogs.
Compound I was administered once within 24 hours and once within 48 hours after ligation.

[15] = Occlusion-induced arrhythmias in conscious dogs, oral administration; assay type: in vivo; conditions: oral 15-20 mg/kg in 4 to 6 gelatin capsules, all cases
Procedure: Tests were also carried out to determine the effect of oral administration of Compound I on occlusion induced arrhythmias in conscious dogs.
Arrhythmia was induced by occlusion of the left anterior descending artery, as above described. Following this, Compound I was administered orally to the animals at the rate of 15-20 mg/kg, the dose being divided among 4 to 6 gelatin capsules, without prior treatment such as micronization or admixture with a diluent or carrier.

[16] = Pharmacokinetic parameters in conscious dogs with occlusion-induced arrhythmia; assay type: in vivo; conditions: dog, blood, iv
Procedure: The pharmacokinetic parameters of Compound I were determined in conscious dogs suffering from occlusion-induced arrhythmia. After intravenous injection of a single therapeutic dose, venous blood samples were withdrawn at given intervals, heparinized and analyzed for their content of Compound I by gas chromatography.

[17] = Biological availability by the oral route in dog; assay type: in vivo
Procedure: The biological availability of Compound I administered by the oral route was determined first in a conscious, healthy dog that received a dose of 7.5 mg/kg subdivided in 6 gelatin capsules that were slipped down its throat.

[18] = Summary comparison with lidocaine: ouabain-induced arrhythmia; assay type: in vivo; conditions: i.v.
[19] = in vivo
[20] = in vivo; remark: listed apart in the source
[21] = Summary comparison with lidocaine: side effects; conditions: summary table
albino mice = test: Symptoms after intraperitoneal administration to albino mice; assay type: in vivo; conditions: i.p.
Excerpt: This is confirmed by the tests of compound II, namely the hydrochloride of 2,6-xylidide of quinuclidine-2-carboxylic acid, which was produced both by the method of French Pat. No. 1,566,045, and by the method of the present invention. Administration of Compound II to albino mice by the intraperitoneal route induced the following symptoms: […]

[22] = Effect of Compound II in drug-induced (ouabain) arrhythmia; assay type: in vivo; conditions: 2.7 kg cat, nembutal; ouabain 70 μg per kg; i.v. 1.1 mg per kg
Procedure: Arrhythmia was induced in 2.7 kg cat, previously anesthetized with nembutal, by the slow infusion of ouabain over a period of one hour and to a total dose of 70 μg per kg.

[23] = Effect of Compound II in arrhythmia induced by coronary occlusion; assay type: in vivo; conditions: dog 15 kg, 24 hours after ligation; i.v. 3 mg per kg
Excerpt: Arrhythmia was induced in a dog of 15 kg body weight, by ligation of the left anteria descending coronary artery with a silk thread number 000.

[24] = dog, conditions as Table 1, hydrochloride
[25] = cat 13, lidocaine HCl single i.v. injection 1.6 mg/kg
[26] = cat, lidocaine HCl single i.v. injection 4 mg/kg, 4 mg/kg

Cc1cccc(C)c1NC(=O)C1CC2CCN1CC2 (centres unmarked) [2,6-xylidide of quinuclidine-2-carboxylic acid]
action indicated [1]: antiarrhythmic and local anaesthetic action | cardiac antiarrhythmic action [2]: devoid of useful cardiac antiarrhythmic action; also recorded: devoid of useful antiarrhythmic properties; also recorded: devoid of any useful cardiac antiarrhythmic effect | neurotoxicity [2]: neurotoxic | cardiac antiarrhythmic action ([2]; listed as 2,6,-xylidide of quinuclidine-2-carboxylic acid): completely devoid of any useful antiarrhythmic action

Cc1cccc(C)c1NC(=O)C1CN2CCC1CC2 (centres unmarked) [2,6-xylidide of quinuclidine-3-carboxylic acid]
pharmacological effect [3]: no pharmacological effect except for a weak local anaesthetic action | cardiac antiarrhythmic action [2]: pronounced cardiac antiarrhythmic activity; also recorded: highly pronounced cardiac antiarrhythmic action

Cc1cccc(C)c1NC(=O)C1CN2CCC1CC2 (centres unmarked) [Compound I, 2,6-xylidide of quinuclidine-3-carboxylic acid hydrochloride]
LD50 [4]: 60 ± 5 mg/kg | effect on metrazole-induced convulsions [5]: did not affect metrazole-induced convulsions | effect on oxotremorine-induced tremors [6]: did not affect oxotremorine-induced tremors | effect against Indoklon-induced seizures [7]: equally ineffective | effect against electro shock-induced seizure [8]: equally ineffective | change in posture, behavior or mood (conscious, healthy dogs): no significant change in posture, behavior or mood from control | effect on ECG (normal heart [9]; dog, in vivo, 5 mg/kg): Broadening of the QRS complex was observed | time for ECG record to revert to normal (normal heart [9]; dog, in vivo, 5 mg/kg): ≤ 15 min | change in the ECG (normal heart [9]; dog, in vivo, iv, 3 mg/kg): no change in the ECG | other signs of overt toxicity (normal heart [9]; single dose of 5 mg/kg administered rapidly, one case): no other signs of overt toxicity | change in the ECG (normal heart [10]): no change in the ECG | effect on ECG (normal heart [11]; cumulative dose 6 mg/kg): broadening of the QRS occurred but sinus rhythm was maintained | effect on ECG (normal heart [11]; cumulative dose 10.5 mg/kg): broadening of the QRS occurred but sinus rhythm was maintained | effect on ECG / conduction (normal heart [11]; cumulative dose 16.5 mg/kg, hydrochloride, 16.5 mg/kg): second degree AV block occurred; also recorded: Atrial conduction slowed down | time to disappearance of severe toxic effects (normal heart [11]; drug administration discontinued after 16.5 mg/kg cumulative, heart reverting to normal sinus rhythm): 40 min | effect on ECG / heart (normal heart [11]; further […], total cumulative dose 23.5 mg/kg): high degree AV block, followed by cardiac standstill | effect on ECG (normal heart [11]; total dose of 3 mg/kg in small increments over 34 minutes): leftward shift of the QRS complex | B.P. (blood pressure), Compound I treated ([12]; cat 1, 0.5 mg/kg used): 80/60 | Duration (period of observation from onset of reversal of arrhythmia) ([12]; cat 1, 0.5 mg/kg used): 10 min | H.R. (heart rate), Compound I treated ([12]; cat 1, 0.5 mg/kg used): 100 per min | S.R. (sinus rhythm), Compound I treated ([12]; cat 1, 0.5 mg/kg used): + | Duration (period of observation from onset of reversal of arrhythmia) ([12]; cat 3, bolus i.v. 1 mg/kg, after ouabain): 240 min | improvement of the ECG ([12]; cat, single dose 1 mg/kg, 10 minutes after constant arrhythmia, ouabain 70-90 μg/kg cumulative): marked improvement of the ECG that lasted much longer than any improvement achieved with lidocaine | reappearance of arrhythmia and response to additional dose ([12]; cats marked ##, additional dose 1 mg/kg for 2, 7 and 0.5 mg/kg for 10): suppressed again with an additional dose of EO-122 | H.R. (heart rate), Compound I treated ([13]; dog, conditions as Table 1): 170 per min | S.R. (sinus rhythm), Compound I treated ([13]; dog, conditions as Table 1): + | B.P. (blood pressure), Compound I treated [13, 24]: 100/80 and 140/110 | Duration (period of observation from onset of reversal of arrhythmia) [13, 24]: 40 min and 25 min | reappearance of arrhythmia and response to additional dose ([13]; dogs 14, 15, one i.v. injection of […]): Arrhythmia reappeared after this period but was suppressed | reversal of VT to normal sinus rhythm ([13]; dogs, 1 mg/kg single doses): reversal of VT to normal sinus shythm was achieved | Onset of effect, occlusion-induced arrhythmia within 1st 24 hr. ([14]; i.v.): 2 min | duration of full, uninterrupted sinus rhythm ([14]; one bolus i.v. injection of 3 mg/kg within 24 hours after ligation): ≤ 20 min | restoration of normal sinus rhythm [15]: fully effective in the restoration of normal sinus rhythm | half-life ([16]; i.v. single therapeutic dose, conscious arrhythmic dogs, venous blood, GC, read-out: Biological half-life (t1/2)): 4 to 5 h | half-life ([16]; i.v. single therapeutic dose, conscious arrhythmic dogs, read-out: t1/2 for distribution): 0.0833 h | half-life ([16]; summary table, read-out: t1/2 for distribution): 0.0833 h | half-life ([16]; summary table, read-out: t1/2 for elimination): 4 to 5 h | Vd ([16]; summary table, read-out: volume of distribution): 0.2 L/kg | bioavailability in conscious arrhythmic dogs ([17]; conscious arrhythmic dogs, oral, relative to healthy dog): of the same order | bioavailability ([17]; dog, in vivo, po, summary table): ~80% | Cmax ([17]; in vivo, oral 7.5 mg/kg in 6 gelatin capsules, conscious healthy dog, read-out: Peak blood concentration): 1500 to 2000 ng/mL | Duration of effect, ouabain-induced arrhythmia [18]: about 1 hour | Onset of effect, ouabain-induced arrhythmia [18]: about 2 minutes | Side effects: Hypotension [19]: none | side effects [20]: absence of side effects such as hypotension and CNS stimulation | solubility (Solubility): highly soluble | Side effects: CNS-effects [21]: none | Side effects: Emesis [21]: partial

Cc1cccc(C)c1NC(=O)C1CC2CCN1CC2 (centres unmarked) [Compound II, 2,6-xylidide of quinuclidine-2-carboxylic acid hydrochloride]
cause of death (albino mice; 100 mg per kg): respiratory failure | lethal dose (albino mice; albino mice): 100 mg. per kg | Effects (albino mice; dose range 20-30 mg per kg): increased locomotion, excitation | Effects (albino mice; dose range 40-60 mg per kg, hydrochloride): pronounced neurotoxicity, ataxia; also recorded: partial paralysis | effect in ouabain-induced arrhythmia [22]: precipitated ventricular fibrillation and death | neurotoxicity [23]: clear signs of neurotoxicity such as undue excitement and lateral movements of the head | response in the electrocardiogram [23]: only a fleeting response in the electrocardiogram with only a few signs of improvement

CCN(CC)CC(=O)Nc1c(C)cccc1C [Lidocaine]
B.P. (blood pressure), Lidocaine-treated [12, 25]: 130/100 | Duration (period of observation from onset of reversal of arrhythmia) [12, 25]: 3 min | H.R. (heart rate), Lidocaine-treated [12, 25]: 80 per min | S.R. (sinus rhythm), Lidocaine-treated [12, 25]: + | B.P. (blood pressure), Lidocaine-treated [12, 26]: 60/40 and 120/80 | H.R. (heart rate), Lidocaine-treated [12, 26]: 150 per min and 110 per min | reappearance of arrhythmia after lidocaine ([12]; cats 12 and 13): Arrhythmia reappeared | Onset of effect, occlusion-induced arrhythmia within 1st 24 hr. ([14]; i.v.): 2 min | Single therapeutic dose for suppression of Occlusion-induced arrhythmia within 1st 24 hr. after operation ([14]; i.v.): often ineffective | effect of lidocaine on occlusion-induced arrhythmia ([14]; same animals, bolus i.v. 3 mg/kg): either completely ineffective or of ultra-short duration | Onset of effect, ouabain-induced arrhythmia [18]: about 2 minutes | Side effects: Emesis [21]: partial | Side effects: Hypotension [21]: about 20%
